The text below walks through data of US10675239B2, “Vegetable extract to prevent and treat hair loss” (GIULIANI S.P.A., priority 2017, dated 2020).

What all share (type): cell-based, mouse
Series [1] deals with BALB3T3 murine fibroblasts stressed with H2O2. Nature of the series: MTT with induced oxidative stress-BALB3T3. Conditions: 50 μM, pretreatment, then 1 mM H2O2 90 min; non-stressed ctr = 100, Ctr + H2O2 = 58.43. An excerpt: MTT with Induced Oxidative Stress-BALB3T3
BALB3T3 mouse fibroblasts are one of the validated models for studies of oxidative stress in vitro (Subirade et al., 1995; Kutuk et al., 2004).
Studies conducted in 2005 by Rajapakse and coworkers (2005) highlighted the possibility of exploiting a highly used and versatile method such as that of the MTT assay for the in vitro study antioxidant activity of active compounds. Specifically, through this method it is possible to study the protective effects of these compounds on cells subsequently subjected to oxidative stress. The induction of oxidative stress is carried out by incubation with hydrogen peroxide, an agent that induces the production of oxidative damage in the cells through ROS formation. The possible protective effects can be determined through the assessment of cell viability after oxidative stress of the pre-treated/pre-exposed cells to the active compounds to be tested, in comparison with cells subjected to the same oxidative stress. […]
Once the oxidation stress induction phase was completed, the cell viability of the various samples was evaluated, according to the method described in point 4.1.2 (assay with MTT).
The data were expressed as a percentage of cell viability compared to non-stressed control cells (ctr), according to the following formula: % cell viability/ctr=(Sample Abs/ctr Abs)*100 […]

The test system of series [2] is ROS production in the BALB3T3 murine fibroblast cell line. Nature of the series: ROS intracellular production (DCFH-DA assay)-BALB3T3. Conditions: 25 μM, 16 h pretreatment, then 1 mM H2O2 90 min; ctr + H2O2 = 100. Here is the method: Study of the Effects of Galeopsis segetum and Galeopsis tetrahit and on ROS Production Using a DCFH-DA-BALB3T3 Assay
The ROS production in the BALB3T3 murine fibroblast cell line was determined by spectrophotometer using the 2,7-dichlorofluorescein-diacetate (DCFH-DA) assay, as described by Tobi et al. (Tobi et al., 2000).
DCFH-DA is a non-fluorescent compound in lipophilic form, able to spread through the cell membrane. Once inside the cell, it is deacetylated by the intracellular esterases to reduced 2,7-dichlorofluorescein (DCFH), which is also non-fluorescent. DCFH, unable to cross again the cell membrane, eventually ends up accumulating in the cells (Curtin et al., 2002). The intracellular ROS reaction leads to the oxidation of 2.7-dichlorofluorescein (DCF) DCFH, a highly fluorescent compound. This fluorescence intensity can be detected with a fluorimeter, allowing estimating the amount of ROS produced in the cells.
[…]
Subsequently, the lysates were transferred in a 96-well black plate and the fluorescence of DCF was read spectrofluorimetrically using a FluoroskanAscent FL Microplate Fluorescence Reader (Thermo Fisher ScientificInc., Waltham, Mass., USA), with excitation and emission wavelengths of 485 and 538 nm respectively. […]

For series [3], the system named is 5 alpha-reductase isoform 2 (SRD5A2). In words: Gene expression of isoform 2 of 5 alpha-reductase (SRD5A2) in BALB3T3 cells by qRT-PCR. Conditions: 0.05 mg/mL, 24 h, relative expression 2^-ΔΔCt vs β-actin, Ctr = 1. Here is the method: Effects of Galeopsis segetum and Galeopsis tetrahit Study on the Activity of 5 Alpha-Reductase (Isoform 2)-BALB3T3
The gene expression of the isoform 2 of 5 alpha-reductase (SRD5A2) in BALB3T3 cells was evaluated by relative quantitative RT-PCR (quantitative reverse transcription polymerase chain reaction-qRT-PCR).
This analysis has foreseen 3 sequential phases: • Total RNA extraction; • Reverse transcription in cDNA; • qRT-PCR.
BALB3T3 murine fibroblasts were seeded in 12-well plates at a density of 0.5*10^6 cells/well and incubated until about 80% confluence was achieved.
Subsequently, the cells were incubated for 24 hours with Galeopsis segetum and Galeopsis tetrahit (vegetable biomass and dry hydro-alcoholic sample) at the following concentrations: 20-50 and 100 μg/ml. […]
At the end of the incubation with the active compounds of interest, cells were washed with PBS (1×) and finally subjected to the RNA extraction procedure. At the end of the extraction, using a spectrophotometer (Jenway UV/VIS MOD: 6715, BS-6715B0), the concentrations in μg/ml of total RNA extracted at the wavelength of 260 nm were calculated. Finally, the integrity of RNA (2 μg/ml) by electrophoretic run on 1% agarose gel was evaluated. […]
The extracted and quantified RNA was diluted to a concentration of 2 μg/ml and retro-transcripted in cDNA. […]
Assuming a 100% amplification efficiency, the 2^−ΔΔCt was calculated.

Regarding `Cc1c(C)c2c(c(C)c1O)CC[C@@](C)(CCC[C@H](C)CCC[C@H](C)CCCC(C)C)O2` [α-tocopherol], in series [1], the “% cells viability” value is recorded as 78.37%. Further, the “% ROS” value in series [2] came out at 39.67%. `CC(C)(C)NC(=O)[C@H]1CC[C@H]2[C@@H]3CC[C@H]4NC(=O)C=C[C@]4(C)[C@H]3CC[C@]12C` [finasteride]: in series [3], the “mRNA SERD5A2” value stood at 0.31.
